The record followed here is article PMC12040169 (PLOS Biology, 2025).

A short description of the data set: in vitro. Conditions: human, hela cells, % viability.
The term viability denotes a read-out of living cells in per cent, often relative to untreated cells. For the molecule `Cc1nn(-c2ccccc2)c2[nH]c(=O)c(CNC(C)C)cc12` [CBK282899], the viability at 28.5 h, 10 µM amounted to 93.1%.

For the molecule `COC1CCCC(C(=O)NC(Cc2ccsc2)c2cccnc2)C1` (stereo not drawn) [CBK284654], the viability at 28.5 h, 10 µM came to 84.4%.

Regarding `Cc1cc(C2CCCN2C(=O)c2ccc(C(F)(F)F)nc2)on1` (stereo not drawn) [CBK305761], the viability at 28.5 h, 10 µM came to 88.6%. As to `COc1ccc(C)cc1S(=O)(=O)Nc1cc(N2CCN(C(C)C)CC2)c2occc2c1` [CBK073625C], the viability at 28.5 h, 10 µM was 92%.

`O=C(c1ccncc1)N1CCN(S(=O)(=O)c2ccccc2[N+](=O)[O-])CC1` [CBK264196]: the viability at 28.5 h, 10 µM is 92.6%. The result for `Cc1[nH]c2ccccc2c1/C=C1/SC(=S)N(CC(=O)O)C1=O` [CBK262220] reads 118%.

Regarding `CC(=O)NCCC(CN1CCOCC1)([N+](=O)[O-])[N+](=O)[O-]` [CBK261338], the viability at 28.5 h, 10 µM was found to be 88.7%. As for `Cc1ccc(C)c(Nc2nc3nonc3nc2N2CCOCC2)c1` [CBK262491], the viability at 28.5 h, 10 µM came to 88.8%. The result for `Cc1cnc2c(Cl)c(C(=O)NCC(F)(F)F)nn2c1` [CBK307391] reads 93.1%; that for `CNC(=O)C1(Cc2ccccc2-c2ccccc2)CCN(C(=O)CCC2CCCC2)CC1` [CBK285696], 89.4%; that for `O=S(=O)(c1ccc(C(F)(F)F)cc1)c1ccc2nccc(N3CCNCC3)c2c1` [CBK200016C], 91.2%. The result for `O=C(Nc1ccc(N2CCNCC2)nc1)c1cnccn1` [CBK029436T] reads 126%. Then `O=C(NC1CCc2ccccc21)N1CCN(Cc2ccccc2)CC1` (stereo not drawn) [CBK155662], with 97%; and `CC(C)(C)c1ccc(S(N)(=O)=O)cc1NC(=O)Nc1cccc(F)c1` [CBK093643], with 100%; and `CCc1c(C)sc2ncn(C3CCN(C(=O)C(C)C)CC3)c(=O)c12` [CBK282377], with 81.1%. Regarding `O=C(/C=C/c1ccccc1Cl)NCCc1ccccc1` [CBK261794], the viability at 28.5 h, 10 µM stood at 97.5%. Then `O=C(Cn1cc(C(=O)NCC2(c3ccccc3)CCCC2)ccc1=O)NC1CCCC1` [CBK286040], with 104%; and `COc1ccc([C@@]23CC[C@@H](NC(=O)Nc4cccc(SC)c4)C[C@@H]2N(C)CC3)cc1OC` [CBK036459T], with 91.1%; and `Cn1c(Sc2ccc(C#N)cn2)nnc1-c1ccco1` [CBK297756], with 111%. The result for `C=C(C)Cn1c(SCC(C)C)nnc1-c1ccccc1F` [CBK200077] reads 107%; that for `Cc1ccc(CN(CCCn2ccnc2)Cc2nccn2C)s1` [CBK283137], 91.8%; that for `CCOC(=O)CN(Cc1ccccc1)S(=O)(=O)c1ccc(C(C)C)cc1` [CBK043404], 103%. As for `O=C(O)C1CCCCC1C(=O)Nc1ccc(S(=O)(=O)N2CCOCC2)cc1` (stereo not drawn) [CBK268010], the viability at 28.5 h, 10 µM amounted to 104%.

Consider `COCCNc1cc(-c2ccc(C(C)=O)s2)ncn1` [CBK090791], for which the viability at 28.5 h, 10 µM was determined as 115%. The result for `Fc1ccc(-c2cncc(Nc3ccc4c(c3)OC(F)(F)C(F)(F)O4)n2)c(F)c1` [CBK065692] reads 103%.

As for `Cc1ccsc1C(=O)N1CCN(Cc2cc(=O)n3ccccc3n2)CC1` [CBK305044], the viability at 28.5 h, 10 µM stood at 102%. Then `Cn1cc(-c2nc(C3COCCN3C(=O)c3cccc(Cl)c3)no2)cn1` (stereo not drawn) [CBK305443], with 80.1%; and `CC(=O)c1ccc(NS(=O)(=O)c2cc(C(=O)Nc3ccccc3C(=O)O)ccc2Br)cc1` [CBK263203], with 97.2%. The result for `CN(C(=O)CN1CCN(c2cc(-c3cccc([N+](=O)[O-])c3)ncn2)CC1)c1ccccc1` [CBK091137] reads 103%; that for `Cc1ccc2c(c1)nc(CNC(=O)NCCCO)n2C` [CBK306174], 86.1%; that for `CCCCC(=O)N1CCC2(CC1)CC(=O)c1ccc(OCc3ccccc3)c(C)c1O2` [CBK156493], 104%. The result for `CCOc1ccc(C(=O)Nc2nonc2CC)cc1` [CBK287287] reads 94.3%. With `CCNc1nccnc1-c1cnc(OC)nc1OC` [CBK088587], the viability at 28.5 h, 10 µM came to 93.9%. Then `COc1ccc(C2=C3NN=C(N)N3NN2)cc1` [CBK093662], with 84.8%; and `CCCCOc1ccc(-c2nnn(C(C)C(=O)OCC)n2)cc1` (stereo not drawn) [CBK068558], with 88.6%. The result for `O=C(CSc1ccc2nnc(-c3ccccc3)n2n1)NCC1CCCO1` (stereo not drawn) [CBK287515] reads 96.6%. The result for `CN(C(=O)OC(C)(C)C)C1CN(C(c2ccccc2)c2ccccc2)C1` [CBK008111] reads 89.8%. In the case of `COc1cc(C(=O)N2CCC3(CC2)CC(=O)c2cc(C)ccc2O3)cc(-c2ccc(OC)c(OC)c2)c1` [CBK168271], the viability at 28.5 h, 10 µM came out at 88.9%. Take `Cn1nc(-c2ccc(S(=O)(=O)Nc3nnc(C(F)(F)F)s3)s2)cc1C(F)(F)F` [CBK062017]: the viability at 28.5 h, 10 µM was found to be 103%. Then `Cc1cccc(CN2CC[C@H]3[C@@H](C2)[C@H](c2ccsc2)CN3C(=O)c2ccccc2)c1` [CBK285619], with 106%. The result for `Cc1ccc2c(c1)cc(C(=O)N1CCC(C(=O)NCCc3ccc(Cl)cc3)C1)n2C` (stereo not drawn) [CBK285926] reads 103%. The result for `Cn1cc(NC(=O)c2ccc(CN3CCCC3=O)cc2)cn1` [CBK306322] reads 89.7%; that for `O=S(=O)(c1cccs1)n1ccc2c(CN3CCCC3)cccc21` [CBK116195T], 89.3%.

On to `CC(C)NC(=O)c1ccc(Cl)cc1` [CBK015665], for which the viability at 28.5 h, 10 µM turned out to be 101%. The result for `CC(=O)Nc1cccc(-c2nccnc2NCC(c2cccnc2)N(C)C)c1` (stereo not drawn) [CBK037998] reads 95.6%; that for `NS(=O)(=O)c1ccc(NC(S)=Nc2ccc(S(=O)(=O)N3CCCC3)cc2)cc1` [CBK266918], 80.3%; that for `O=C(NC[C@H]1CCCN(C(=O)c2cccs2)C1)c1ccco1` [CBK284261], 94.6%. Regarding `CCS(=O)(=O)N1CCc2cc(C(=O)CSc3nnc(-c4ccco4)o3)ccc21` [CBK297126], the viability at 28.5 h, 10 µM turned out to be 98.3%. The result for `CN1CCN(S(=O)(=O)c2ccc(C(C)(C)C)cc2)CC1` [CBK051237] reads 106%. Then `Cc1cc(C)nc(NC(=O)OCc2cc(C)nc(C)c2)c1` [CBK138231], with 87.9%; and `Cc1nc(C)n(CC2CCCN(Cc3cn4ccccc4c3C#N)C2)n1` (stereo not drawn) [CBK306103], with 92.6%; and `CC1CCCN(C(=O)CCn2c(-c3ccccn3)cc3cccnc32)C1` (stereo not drawn) [CBK282154], with 91.2%. Then `CC(C)[C@H](CO)Nc1nc(-c2ccc(CCC(=O)O)cc2)cn2ccnc12` [CBK037522], with 92.7%; and `Nc1nc(-n2cnnc2)nn1-c1ccccc1` [CBK265015], with 97.2%. As for `CNC(=O)c1ccc(-c2ccccc2C)nc1NCCOC` [CBK106007], the viability at 28.5 h, 10 µM is 99.7%. For `OCC1CCCN1c1nccnc1-c1ccoc1` (stereo not drawn) [CBK089057], the viability at 28.5 h, 10 µM was 105%. The result for `CCc1c(C)nc2c(C(=O)NC(CC)COC)cnn2c1C` (stereo not drawn) [CBK162133] reads 97.5%.
